Test results published in patent US9840498B2, “Substituted quinazolin-4-one derivatives” (NOVARTIS AG, priority 2013, dated 2017).

Molecular target: PI 3-Kinase Gamma (Homo sapiens (Human), UniProt P48736)
Test: Cellular U937 AKT assay for PI 3-kinase gamma
Format: cell-based
Conditions: U937 cells, MIP1α-stimulated AKT phosphorylation, read-out: Cell PI3K gamma IC50
Procedure: The U937 monocyte cell line is maintained in a basal medium of RPMI 1640 supplemented with 10% heat inactivated FCS, 100 U/ml Penicillin, 100 ug/ml streptomycin and 2 mM L-glutamine (Invitrogen). U937 suspension culture is maintained by seeding cells at a density of 0.125×10^6 cells per ml in fresh medium every three or four days. Cells are incubated at 37° C., 5% CO2. […] Before beginning the cell manipulations described below, the MSD (Meso Scale Discovery) assay plate is blocked by addition of 150 ul/well blocking buffer supplied and incubated with shaking for a minimum of one hour at room temperature. All steps of the assay must be performed quickly, with accurately timed incubation periods and observing temperature controls where indicated. […] Falcon tube, counted and centrifuged for eight minutes at 300 g at room temperature. Supernatant is aspirated, the cell pellet resuspended and washed once in HBSS (Hank's Balanced Salt Solution) by centrifugation for eight minutes at 300 g at room temperature. The cell pellet is resuspended in HBSS to a concentration of 4×10^6 per ml, and 100 μL of cell suspension added to each well of a flat-bottomed 96-well tissue culture plate. Assay plates are incubated for 1.5 hours at 37° C., 5% CO2 to allow background AKT phosphorylation to reduce before the compound stimulation step. […] Compound concentrations at this stage are 4-times the final concentration required in the assay plate. Cells are stimulated with compound or HBSS 0.8% DMSO by direct transfer of 50 ul/well from the compound dilution plate. The assay plate containing compound-treated cells is then incubated for 30 minutes at 37° C. A standard plate layout is used for all experiments. Compound-treated cells, in addition to positive control wells (“max MIP1α”), are stimulated with 50 μL per well of 40 ng/ml MIP1α (R&D Systems catalogue number 270-LD, lyophilized stock reconstituted to 50 μg/ml with PBS 0.1% BSA). Negative control wells (“min HBSS”), are stimulated with 50 μl/well of HBSS in the absence of MIP1α. […] Cells are incubated with MIP1α for 3 minutes, at 37° C., 5% CO2. After the three minute stimulation period, the assay plate is kept ice cold at all times. Assay plates are centrifuged for 2 minutes at 300 g, 4° C. and supernatant is removed by gently inverting, and then blotting the plate on tissue. Cells are then washed by gentle addition of 150 μL/well of ice cold HBSS and centrifugation at 300 g, for 5 minutes at 4° C. Supernatant is aspirated and the plate blotted as described above. The plate is placed on ice and cells are immediately treated with 35 μL per well of ice cold lysis buffer, prepared according to the kit instructions (per assay plate, to 5 ml of Tris lysis buffer add 100 μl of 50× protease inhibitor solution and 50 μl of each 100× phosphatase inhibitor solutions I and II). Plates are incubated on ice for 20 minutes before centrifugation at 841 g for 5 minutes, 4° C. Block buffer is aspirated from the MSD plate, and the plate washed four times with 300 μl/well Tris wash buffer. 25 μL of cell lysate is then transferred from the assay plate to the washed MSD plate which is sealed and incubated at room temperature for one hour with shaking. The plate is washed four times with 300 μL per well of Tris wash buffer before addition of 25 μL per well of sulfo-tag anti-total AKT/pAKT detection antibody (60 μl of 50× antibody stock is diluted in 1 ml block buffer mixed with 2 ml wash buffer) and incubated at room temperature for one hour with shaking. The plate is washed four times with 300 μl per well of Tris wash buffer and 150 μl per well of Read buffer is added, taking care to avoid the introduction of bubbles. The plate is immediately read using an MSD SECTOR Imager 6000. Results are exported in Excel and the percentage of phosphorylated AKT is calculated using the equation: % Phosphoprotein=((2*Phospho signal)/(Phospho signal+Total signal))*100. […]

Chain of PI 3-Kinase Gamma (P48736 whole entry): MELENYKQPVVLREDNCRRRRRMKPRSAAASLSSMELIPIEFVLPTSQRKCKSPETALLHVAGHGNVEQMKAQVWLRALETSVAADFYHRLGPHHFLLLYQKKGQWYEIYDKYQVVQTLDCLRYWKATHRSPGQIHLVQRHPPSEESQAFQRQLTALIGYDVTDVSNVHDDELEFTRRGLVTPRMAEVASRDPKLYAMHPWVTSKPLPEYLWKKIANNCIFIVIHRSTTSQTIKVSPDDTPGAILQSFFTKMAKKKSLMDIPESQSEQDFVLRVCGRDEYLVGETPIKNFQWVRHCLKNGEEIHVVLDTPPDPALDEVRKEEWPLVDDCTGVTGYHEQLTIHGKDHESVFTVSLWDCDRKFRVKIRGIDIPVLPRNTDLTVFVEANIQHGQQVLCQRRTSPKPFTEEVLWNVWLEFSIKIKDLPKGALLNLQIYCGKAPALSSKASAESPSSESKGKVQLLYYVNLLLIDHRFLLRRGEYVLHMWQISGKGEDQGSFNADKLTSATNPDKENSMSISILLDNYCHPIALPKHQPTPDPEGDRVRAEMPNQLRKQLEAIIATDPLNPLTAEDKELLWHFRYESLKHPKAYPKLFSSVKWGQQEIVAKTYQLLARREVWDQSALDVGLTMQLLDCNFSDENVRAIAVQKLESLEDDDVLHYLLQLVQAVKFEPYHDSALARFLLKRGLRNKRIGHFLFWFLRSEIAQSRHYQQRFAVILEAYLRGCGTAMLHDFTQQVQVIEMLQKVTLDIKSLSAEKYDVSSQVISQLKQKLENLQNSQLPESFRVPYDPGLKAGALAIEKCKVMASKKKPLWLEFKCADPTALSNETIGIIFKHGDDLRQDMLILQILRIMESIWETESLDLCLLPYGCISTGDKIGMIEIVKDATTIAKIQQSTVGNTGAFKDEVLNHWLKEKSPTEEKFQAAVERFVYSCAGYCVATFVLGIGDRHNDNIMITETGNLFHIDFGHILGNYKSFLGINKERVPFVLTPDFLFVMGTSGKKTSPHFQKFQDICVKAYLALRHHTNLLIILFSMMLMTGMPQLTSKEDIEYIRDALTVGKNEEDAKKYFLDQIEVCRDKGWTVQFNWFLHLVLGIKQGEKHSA

SMILES	IC50 [nM]
COc1ncc(-c2cccc3nc([C@@H]4CCCN4c4ncnc(N)c4C#N)n(-c4ccccc4)c(=O)c23)cn1 [Example 3, (S)-4-Amino-6-(2-(5-(2-methoxypyrimidin-5-yl)-4-oxo-3-phenyl-3,4-dihydroquinazolin-2-yl)pyrrolidin-1-yl)pyrimidine-5-carbonitrile]	430
COc1ncc(-c2c(F)ccc3nc([C@@H]4C[C@H](O)CN4c4nc(N)nc(C)c4C#N)n(-c4ccccc4)c(=O)c23)s1 [Example 9, 2-Amino-4-((2S,4S)-2-(6-fluoro-5-(2-methoxythiazol-5-yl)-4-oxo-3-phenyl-3,4-dihydroquinazolin-2-yl)-4-hydroxypyrrolidin-1-yl)-6-methylpyrimidine-5-carbonitrile]	56
N#Cc1c(N)ncnc1N1CCC[C@H]1c1nc2cccc(C#CCO)c2c(=O)n1-c1ccccc1 [Example 33, (S)-4-Amino-6-(2-(5-(3-hydroxyprop-1-yn-1-yl)-4-oxo-3-phenyl-3,4-dihydroquinazolin-2-yl)pyrrolidin-1-yl)pyrimidine-5-carbonitrile]	120
Cc1nc(N)nc(N2C[C@@H](O)C[C@H]2c2nc3ccc(F)c(-c4cnn(C)c4)c3c(=O)n2-c2ccccc2)c1C#N [Example 1, 2-Amino-4-((2S,4S)-2-(6-fluoro-5-(1-methyl-1H-pyrazol-4-yl)-4-oxo-3-phenyl-3,4-dihydroquinazolin-2-yl)-4-hydroxypyrrolidin-1-yl)-6-methylpyrimidine-5-carbonitrile]	32
Cc1nc(N)nc(N2CCC[C@H]2c2nc3ccc(F)c(-c4cnn(C)c4)c3c(=O)n2-c2ccccc2)c1C#N [Example 6, (S)-2-Amino-4-(2-(6-fluoro-5-(1-methyl-1H-pyrazol-4-yl)-4-oxo-3-phenyl-3,4-dihydroquinazolin-2-yl)pyrrolidin-1-yl)-6-methylpyrimidine-5-carbonitrile]	41
CCOc1ncc(-c2c(F)ccc3nc([C@@H]4C[C@H](O)CN4c4nc(N)nc(C)c4C#N)n(-c4ccccc4)c(=O)c23)cn1 [Example 29, 2-Amino-4-((2S,4S)-2-(5-(2-ethoxypyrimidin-5-yl)-6-fluoro-4-oxo-3-phenyl-3,4-dihydroquinazolin-2-yl)-4-hydroxypyrrolidin-1-yl)-6-methylpyrimidine-5-carbonitrile]	38
Cn1cnc(-c2cccc3nc([C@@H]4CCCN4c4ncnc(N)c4C#N)n(-c4ccccc4)c(=O)c23)c1 [Example 15, (S)-4-Amino-6-(2-(5-(1-methyl-1H-imidazol-4-yl)-4-oxo-3-phenyl-3,4-dihydroquinazolin-2-yl)pyrrolidin-1-yl)pyrimidine-5-carbonitrile]	> 10000
Cc1nc(N)nc(N2C[C@@H](O)C[C@H]2c2nc3ccc(F)c(-c4cn(C)cn4)c3c(=O)n2-c2ccccc2)c1C#N [Example 31, 2-Amino-4-((2S,4S)-2-(6-fluoro-5-(1-methyl-1H-imidazol-4-yl)-4-oxo-3-phenyl-3,4-dihydroquinazolin-2-yl)-4-hydroxypyrrolidin-1-yl)-6-methylpyrimidine-5-carbonitrile]	240
Cn1cc(-c2c(F)ccc3nc([C@@H]4CCCN4c4ncnc(N)c4C#N)n(-c4ccccc4)c(=O)c23)cn1 [Example 5, (S)-4-Amino-6-(2-(6-fluoro-5-(1-methyl-1H-pyrazol-4-yl)-4-oxo-3-phenyl-3,4-dihydroquinazolin-2-yl)pyrrolidin-1-yl)pyrimidine-5-carbonitrile]	220
Cc1ncc(-c2cccc3nc([C@@H]4CCCN4c4nc(N)nc(C)c4C#N)n(-c4ccccc4)c(=O)c23)cn1 [Example 19, (S)-2-Amino-4-methyl-6-(2-(5-(2-methylpyrimidin-5-yl)-4-oxo-3-phenyl-3,4-dihydroquinazolin-2-yl)pyrrolidin-1-yl)pyrimidine-5-carbonitrile]	220

Results, then the compound that gave them:

IC50 [nM]	SMILES
16	COc1cncc(-c2cccc3nc([C@@H]4CCCN4c4nc(N)nc(C)c4C#N)n(-c4ccccc4)c(=O)c23)c1 [Example 18, (S)-2-Amino-4-(2-(5-(5-methoxypyridin-3-yl)-4-oxo-3-phenyl-3,4-dihydroquinazolin-2-yl)pyrrolidin-1-yl)-6-methylpyrimidine-5-carbonitrile]
270	Cc1nc(N)nc(N2CCC[C@H]2c2nc3cccc(-c4cccnc4)c3c(=O)n2-c2ccccc2)c1C#N [Example 20, (S)-2-Amino-4-methyl-6-(2-(4-oxo-3-phenyl-5-(pyridin-3-yl)-3,4-dihydroquinazolin-2-yl)pyrrolidin-1-yl)pyrimidine-5-carbonitrile]
1100	COc1ccc(-c2cccc3nc([C@@H]4CCCN4c4nc(N)nc(C)c4C#N)n(-c4ccccc4)c(=O)c23)cn1 [Example 21, (S)-2-Amino-4-(2-(5-(6-methoxypyridin-3-yl)-4-oxo-3-phenyl-3,4-dihydroquinazolin-2-yl)pyrrolidin-1-yl)-6-methylpyrimidine-5-carbonitrile]
120	COc1ncc(-c2cccc3nc([C@@H]4C[C@H](OC)CN4c4nc(N)nc(C)c4C#N)n(-c4ccccc4)c(=O)c23)cn1 [Example 12, 2-Amino-4-((2S,4S)-4-methoxy-2-(5-(2-methoxypyrimidin-5-yl)-4-oxo-3-phenyl-3,4-dihydroquinazolin-2-yl)pyrrolidin-1-yl)-6-methylpyrimidine-5-carbonitrile]
40	COc1ncc(-c2cccc3nc([C@@H]4CCCN4c4nc(N)nc(C)c4C#N)n(-c4ccccc4)c(=O)c23)cn1 [Example 4, (S)-2-Amino-4-(2-(5-(2-methoxypyrimidin-5-yl)-4-oxo-3-phenyl-3,4-dihydroquinazolin-2-yl)pyrrolidin-1-yl)-6-methylpyrimidine-5-carbonitrile]
55	Cc1nc(N)nc(N2C[C@@H](O)C[C@H]2c2nc3cccc(-c4cnn(C)c4)c3c(=O)n2-c2ccccc2)c1C#N [Example 16, 2-Amino-4-((2S,4S)-4-hydroxy-2-(5-(1-methyl-1H-pyrazol-4-yl)-4-oxo-3-phenyl-3,4-dihydroquinazolin-2-yl)pyrrolidin-1-yl)-6-methylpyrimidine-5-carbonitrile]
63	COc1ccc(-c2cccc3nc([C@@H]4C[C@H](O)CN4c4nc(N)nc(C)c4C#N)n(-c4ccccc4)c(=O)c23)cn1 [Example 27, 2-Amino-4-((2S,4S)-4-hydroxy-2-(5-(6-methoxypyridin-3-yl)-4-oxo-3-phenyl-3,4-dihydroquinazolin-2-yl)pyrrolidin-1-yl)-6-methylpyrimidine-5-carbonitrile]
170	Cc1nc(N)nc(N2C[C@@H](O)C[C@H]2c2nc3cccc(-c4cncnc4)c3c(=O)n2-c2ccccc2)c1C#N [Example 26, 2-Amino-4-((2S,4S)-4-hydroxy-2-(4-oxo-3-phenyl-5-(pyrimidin-5-yl)-3,4-dihydroquinazolin-2-yl)pyrrolidin-1-yl)-6-methylpyrimidine-5-carbonitrile]
25	COc1ncc(-c2c(F)ccc3nc([C@@H]4C[C@H](O)CN4c4nc(N)nc(C)c4C#N)n(-c4ccccc4)c(=O)c23)cn1 [Example 7, 2-Amino-4-((2S,4S)-2-(6-fluoro-5-(2-methoxypyrimidin-5-yl)-4-oxo-3-phenyl-3,4-dihydroquinazolin-2-yl)-4-hydroxypyrrolidin-1-yl)-6-methylpyrimidine-5-carbonitrile]
49	COc1cncc(-c2cccc3nc([C@@H]4C[C@H](O)CN4c4nc(N)nc(C)c4C#N)n(-c4ccccc4)c(=O)c23)c1 [Example 25, 2-Amino-4-((2S,4S)-4-hydroxy-2-(5-(5-methoxypyridin-3-yl)-4-oxo-3-phenyl-3,4-dihydroquinazolin-2-yl)pyrrolidin-1-yl)-6-methylpyrimidine-5-carbonitrile]
